Experimental data from patent US6855735B2, “Ketamine treatment of restless legs syndrome” (Temple University of the Commonwealth System of Higher …, priority 2002, dated 2005).
“And” between values parts separate entries of the source, which are not always exact repeats. Equal entries are not always repeated.

Legend:
patients with RLS [1] = assay: Case reports: oral ketamine in patients with RLS (Examples 1-6); type: in vivo, human; settings: for earlier treatment / earlier treatment of back pain, neurogenic claudication and RLS: before ketamine
Experimental: A patient presented with a history of back pain, neurogenic claudication, and RLS. Treatment with the dopaminergic agonist, pergolide and oxycodone had been ineffective. In addition to RLS, the patient's past history included prior spinal surgery, insulin-dependent diabetes mellitus, sleep apnea, and congestive heart failure. Their family history was positive for RLS.
The patient was prescribed amitriptyline 25 mg at bedtime and gabapentin 300 mg three times daily in addition to their other medications.
After consenting to the evaluation of single dose efficacy of oral ketamine, the patient received 30 mg of ketamine mixed in 50 cc (or ml) of water. After 20 minutes of observation, the patient noted that their VAS score had improved to 2/10.
A patient with a history of chronic lower back pain, spinal stenosis, scoliosis, and RLS complained of worsening neurogenic claudication. Their VAS was 7/10.
The patient was then treated with 50 mg of oral ketamine.
A patient presented with a history of cardiac transplant, on immune suppressive medication, could not be treated with steroids for with spinal stenosis, neurogenic claudication, and RLS.
A patient presented with a history of multiple back surgeries and depression. […] Opioids were restarted to control the return of the patient's back pain.
A patient presented with a history of a renal transplant with documented lumbar radiculopathy and severe RLS on immunosuppressive treatment. The RLS symptoms were so severe that the patient could not keep their legs still at their initial office visit. […] While the RLS remitted during 4 months of treatment with 25 mg of ketamine daily, opioids were added to the treatment for pain control.
A dialysis patient presented with a history of failed back surgery, spinal stenosis and severe leg pain which responded to treatment with methadone but maintained severe RLS where the patient was not able to sleep more than 2 hours/night.

patients with RLS [2] = assay: Patients treated with doses of oral ketamine (Examples 7-23, Table); type: in vivo, human
Experimental: In the Table shown below, patients were treated with doses of oral ketamine.
(§1) The patients, shown in Examples 7-23, were treated with doses of liquid oral ketamine or oral ketamine in tablet form. There were no patients who had serum levels of ketamine measured that reached the levels reported for therapeutic analgesic effect of ketamine, i.e., 200 ng/ml.

[3] = Serum levels of ketamine in patients treated with low doses of oral ketamine; type: in vivo, human
Experimental: Also, it is suitable that the dose of ketamine administered is less than the dose generally administered for alleviation of pain. For example, since only about 20% of an oral dose of ketamine is absorbed, the successful treatment of a patient with 2 mg of ketamine for RLS over a 24 hour period would equal less than 0.001 mg/kg/hour. At these doses, the threshold serum level for pyschotomimetic side effects (on the order of 50 ng/ml) is not reached. Moreover, the threshold serum level for pain relief (on the order of 200 ng/ml) is also not approached. […] Thus, the serum levels at which oral ketamine acts to relieve RLS are substanitially lower than those reported for pain relief. Treatment with low dosages of oral ketamine provides relief for subjects suffering from or affected by RLS by alleviating symptoms associated with RLS, and avoids the side effects generally encountered in the use of ketamine for the treatment of conscious patients and/or other therapies for RLS described above.
as §1

[4] = cited from earlier work
NMDA receptor = settings: primary metabolite of oral ketamine; cited from earlier work
[5] = Example 1, amitriptyline 25 mg at bedtime and gabapentin 300 mg three times daily together, a month later
[6] = Example 3, oral 20 mg at bedtime
[7] = one patient per row (Examples 7-23), oral ketamine 10-100 mg/24 hours (col I), treatment 1-8 months (col G)

Compound: CN(C)CCC=C1c2ccccc2CCc2ccccc21 [amitriptyline]
- symptoms (patients with RLS [1]; [5]): no improvement in their symptoms
- verbal analog pain score (VAS) (patients with RLS [1]; [5]): 6/10

Compound: NCC1(CC(=O)O)CCCCC1 [gabapentin]
- symptoms (patients with RLS [1]; [5]): no improvement in their symptoms
- verbal analog pain score (VAS) (patients with RLS [1]; [5]): 6/10
- earlier treatment (patients with RLS [1]; Example 2): without success

Compound: CNC1(c2ccccc2Cl)CCCCC1=O (centres unmarked) [ketamine, (2-o-chlorophenyl)-2-(methylamino)-cyclohexanone]
- verbal analog pain score (VAS) (patients with RLS [1]; Example 1, person, single oral dose 30 mg ketamine in 50 cc water, after 20 minutes, VAS before 6/10): 2/10
- sleep and RLS (patients with RLS [1]; Example 1, oral 30 mg twice a day for 6 months): improvement in sleep and RLS
- side effects after single dose (patients with RLS [1]; Example 1, single oral dose 30 mg): no dizziness, or other distressing symptoms
- VAS (patients with RLS [1]; Example 2, person, 50 mg oral ketamine, within 15 minutes, VAS before 7/10): 2/10
- walking (patients with RLS [1]; Example 2, 50 mg oral ketamine, within 15 minutes): subjective improvement in walking
- sleep and RLS symptoms (patients with RLS [1]; Example 2, oral 40 mg twice a day, a month following the trial): significant improvement in their sleep and RLS symptoms
- pain relief (patients with RLS [1]; [6]): no pain relief
- side effects (patients with RLS [1]; [6]): psychotomimetic side effects
- RLS (patients with RLS [1]; Example 3, oral 20 mg at bedtime, persisted after ketamine was stopped): resolution of RLS
- RLS symptoms and sleep (patients with RLS [1]; Example 4, oral daily 25 mg): lessened RLS symptoms and improved sleep
- pain and RLS (patients with RLS [1]; Example 5, renal transplant patient, oral daily 10 mg): pain relief and resolution of RLS
- RLS (patients with RLS [1]; Example 5, 25 mg daily, 4 months of treatment): RLS remitted
- reduction of RLS symptoms (patients with RLS [1]; Example 6, dialysis patient, 2 mg oral at bedtime): more than 50%
- tolerability (psychotomimetic effects) (patients with RLS [1]; Example 6, dialysis patient, 20 mg daily oral): could not tolerate
- psychotomimetic side effects (patients with RLS [1]; Example 6, 2 mg oral at bedtime): no psychotomimetic side effects
- sleep duration (patients with RLS [1]; Example 6, 2 mg oral at bedtime, before not more than 2 hours/night): more than 4.5 hrs./night
- F = VAS or visual analog scale for pain/walking ability (improvement) (patients with RLS [2]; [7]): 80% (4×) and 60% (5×) and 90% and 70% (4×) and 50% (2×) and 40%
- J = complications (patients with RLS [2]; [7]): No (14×) and Yes (2×) and Rash
- RLS symptoms (patients with RLS [2]; patients of Examples 7-23, low ketamine dosage): improved related limb sensations, motor restlessness and insomnia
- serum levels of ketamine ([3]; patients of Examples 7-23 who had serum levels measured, liquid or tablet oral ketamine): < 200 ng/mL
- serum levels of ketamine ([3]; patients treated with low doses of oral ketamine for RLS, commercially available tests): not to have detectable serum levels
- threshold serum level for pain relief ([4]; in vivo): ~200 ng/mL
- fraction of an oral dose absorbed ([4]; oral): about 20%

Compound: CCC(=O)C(CC(C)N(C)C)(c1ccccc1)c1ccccc1 (centres unmarked) [methadone]
- severe leg pain (patients with RLS [1]; Example 6, dialysis patient, severe RLS maintained): responded

Compound: NC1(c2ccccc2Cl)CCCCC1=O (centres unmarked) [norketamine]
- potency relative to ketamine (NMDA receptor): one-third to one-fifth

Compound: COc1ccc2c3c1O[C@H]1C(=O)CC[C@@]4(O)[C@@H](C2)N(C)CC[C@]314 [oxycodone]
- earlier treatment of back pain, neurogenic claudication and RLS (patients with RLS [1]; Example 1): ineffective

Compound: CCCN1C[C@H](CSC)C[C@@H]2c3cccc4[nH]cc(c34)C[C@H]21 [pergolide]
- earlier treatment of back pain, neurogenic claudication and RLS (patients with RLS [1]; Example 1): ineffective

Compound: C=C[C@H]1C[N@@]2CC[C@H]1C[C@H]2[C@H](O)c1ccnc2ccc(OC)cc12 [quinine]
- earlier treatment (patients with RLS [1]; Example 2): without success

Compound: CS(=O)(=O)c1ccc(C2=C(c3ccccc3)C(=O)OC2)cc1 [rofecoxib]
- earlier treatment (patients with RLS [1]; Example 2): without success

Compound: COc1cccc(C2(O)CCCCC2CN(C)C)c1 (centres unmarked) [tramadol]
- earlier treatment (patients with RLS [1]; Example 2): without success
